Measurements taken from patent US20160340324A1, “METHODS AND COMPOSITIONS FOR TREATING CANCER” (Sanford-Burnham Medical Research Institute, priority 2013, published 2016).

Key:
RXRα = target: T1, RXRα (Homo sapiens, UniProt P19793); test: CAT reporter assay with (TREpal)2-tk-CAT and RXRα transfected into CV-1 cells; type: cell-based; conditions: 9-cis-RA 10^-7 M, BI-1003 1 μM
T1 construct: expressed in transfected cells; host or cells: CV-1 African green monkey kidney cells
T1 sequence (P19793 1-462): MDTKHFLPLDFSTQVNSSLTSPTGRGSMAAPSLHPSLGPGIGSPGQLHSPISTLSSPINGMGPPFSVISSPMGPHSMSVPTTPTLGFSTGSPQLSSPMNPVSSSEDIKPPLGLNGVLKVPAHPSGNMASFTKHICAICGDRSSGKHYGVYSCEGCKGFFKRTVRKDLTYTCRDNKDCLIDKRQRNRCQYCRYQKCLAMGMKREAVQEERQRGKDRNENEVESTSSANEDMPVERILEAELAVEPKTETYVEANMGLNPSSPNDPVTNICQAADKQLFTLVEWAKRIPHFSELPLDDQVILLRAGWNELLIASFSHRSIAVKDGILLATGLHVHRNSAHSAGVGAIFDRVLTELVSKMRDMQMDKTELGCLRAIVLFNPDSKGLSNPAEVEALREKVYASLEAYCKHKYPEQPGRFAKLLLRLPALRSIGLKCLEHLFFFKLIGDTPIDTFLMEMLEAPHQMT
Method: FIGS. 2A and 2B are graphs of relative CAT activity. (TREpal)2-tk-CAT and RXRα were transiently transfected into CV-1 cells. […] CAT activity was determined. […] Error bars represent SEM. FIG. 2C is a graph of relative LUC activity. pBind-RXRα-LBD and pG5luc were transiently transfected into HCT-116 cells. […] Luciferase activity was determined.

RXRα-LBD = target: T2, RXRα-LBD (Homo sapiens, UniProt P19793); test: Mammalian one hybrid: Gal4-RXRα-LBD chimera (pBind-RXRα-LBD) and pG5luc reporter in HCT-116 cells; type: cell-based; conditions: 9-cis-RA 10^-7 M, BI-1003 1 μM, K-8008 and K-8012 50 μM
T2 construct: expressed in transfected cells; host or cells: HCT-116
T2 sequence (P19793 227-458 limits assumed): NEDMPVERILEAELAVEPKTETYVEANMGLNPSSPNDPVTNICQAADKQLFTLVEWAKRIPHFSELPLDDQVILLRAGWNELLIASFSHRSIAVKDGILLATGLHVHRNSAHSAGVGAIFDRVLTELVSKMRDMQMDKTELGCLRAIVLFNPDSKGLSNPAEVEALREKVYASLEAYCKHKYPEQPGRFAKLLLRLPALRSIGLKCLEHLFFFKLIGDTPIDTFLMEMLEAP
Method: FIGS. 2A and 2B are graphs of relative CAT activity. (TREpal)2-tk-CAT and RXRα were transiently transfected into CV-1 cells. […] CAT activity was determined. […] Error bars represent SEM. FIG. 2C is a graph of relative LUC activity. pBind-RXRα-LBD and pG5luc were transiently transfected into HCT-116 cells. […] Luciferase activity was determined. […] HCT-116 cells seeded in 24-well plates were transiently transfected with 50 ng pG5luc, 25 ng pBind-RXRα-LBD. […] Cells were washed, lysed and assayed by using the Dual-Luciferase Reporter Assay System (Promega). Transfection efficiency was normalized to Renilla luciferase activity.

[1] = system: A549 lung cancer, PC3 prostate cancer, ZR-75-1 and MB231 breast cancer cells; test: MTT cell viability / growth inhibition assay; type: cell-based, human; conditions: 48 h
Method: (§1) Cell viability was measured by the MTT colorimetric assay. FIG. 3B depicts inhibition of TNFα-induced AKT activation. […] Phosphorylated AKT and total AKT were analyzed by immunoblotting.
FIGS. 8A-C are a series of graphs depicting that sulindac and other compounds induce apoptosis of cancer cells. FIG. 8A is a PC3 prostate cancer cell line. FIG. 8B is a ZR-75-1 breast cancer cell line, and FIG. 8C is a MDA-MB-231 breast cancer cell line. Each were treated with the indicated concentration of Sulindac or other compounds for 48 h. Cell viability was determined by the MTT assay.
Confluent cells cultured in 96-well dishes were treated with various concentrations of compounds for 48 h. The cells were then incubated with 2 mg/mL (3-(4,5-Dimethylthiazol-2-yl)-2,5-diphenyltetrazolium bromide (MTT) for 4 h at 37° C. MTT solution was then aspirated and formazan in cells was instantly dissolved by addition of 150 μL DMSO each well. Absorbance was measured at 570 nm.

A549 cells = test: PARP cleavage (apoptosis) with or without TNFα, immunoblotting; type: cell-based, human; conditions: 4 h; for PARP cleavage, combination with TNFα: 40 μM compound plus TNFα 10 ng/mL
HepG2 tumor xenografts = HepG2 tumor xenografts in nude mice; type: in vivo; conditions: for apparent toxic effects such as loss of body weight: 20 mg/kg daily for 12 days, body weight every 3 days; for reduction of tumor weight: 20 mg/kg intraperitoneally once a day, 12-day treatment
Method: FIGS. 4A-4F depict inhibition of HepG2 tumor growth in animals. FIG. 4A is a photograph of tumors. FIG. 4B is a graph of tumor volume. FIG. 4C is a graph of tumor weight. […] Tumors were removed and measured. Tumor sizes and weights in control, K-80003 and K-8008-treated mice were compared. FIG. 4D is a Western blot. Lysates prepared from three tumors treated with vehicle or K-8008 were analyzed by Western blotting assay for p-AKT expression. FIG. 4E is a series of photomicrographs. H&E staining and TUNEL assay. Tumor sections were stained for H&E or TUNEL by immunohistochemistry. […]. FIG. 4F is a graph of body weight. […]. Body weight was measured every three days. Each point represents the mean±standard deviation of six mice. The differences between the compound treated group and control group are not significant (P>5%).
[…]. Nude mice (BALB/c, SPF grade. 16-18 g, 4-5-week old) were housed at 28° C. in a laminar flow under sterilized conditions. Mice were injected subcutaneously with 100 μL HepG2 cells ([…]). […]. Body weight and tumor size were measured every 3 days. Mice were sacrificed after 12-day drug treatment and the tumors removed for various assessments.
Paraffin wax embedded tumors were cut into 5 |iM-thick sections. These sections were deparaffinized and stained with hematoxylin and eosin (H&E) according to the standard protocol. Tumor sections of HepG2 xenografts were also stained with TUNEL for assessing spontaneous apoptosis according to the manufacturer's instructions (In situ Cell Death Detection Kit; Roche). The images were taken under a fluorescent microscope (Carl Zeiss).

[2] = system: TNFα-induced AKT activation in A549 lung cancer cells; test: Inhibition of TNFα-induced AKT activation, immunoblotting; type: cell-based, human; conditions: pretreated 1 h, TNFα 10 ng/mL 30 min
Method: as §1
ZR-75-1 and MB231 breast cancer cells (FIG. 8). A unique property of Sulindac and other compounds are their ability to inhibit TNFα-induced AKT activation (Zhou et al, 2010). […] Similar results were obtained in other cancer cell lines (FIG. 9).
Cells were lysed and equal amounts of the lysates were electrophoresed on 10% SDS-PAGE gels and transferred onto PVDF membranes (Millipore). The membranes were blocked with 5% skimmed milk in TBST [50 mM Tris-HCl (pH7.4), 150 mM NaCl and 0.1% Tween20] for 1 h, then incubated with primary antibodies and secondary antibodies and detected using ECL system (Thermo). The dilutions of the primary antibodies were anti-RXRα (AN 197, Santa Cruz) in 1:1000, anti-PARP(H-250. Santa Cruz) in 1:3000, anti-p85α (Millipore) in 1:1000, anti-p-AKT (D9E, Cell Signaling Technology) in 1:1000, anti-AKT 1/2/3 (H-136, Santa Cruz) in 1:1000, anti-β-actin (Sigma) in 1:5000, anti-c-myc (9E10, Santa Cruz), anti-Flag (FI 804, Sigma).

human RXRα-LBD = target: T3, human RXRα-LBD (Homo sapiens, UniProt P19793); test: Ligand-binding competition assay with [3H]9-cis-RA; conditions: [3H]-9-cis-RA 7.5 nM
T3 sequence (P19793 223-462): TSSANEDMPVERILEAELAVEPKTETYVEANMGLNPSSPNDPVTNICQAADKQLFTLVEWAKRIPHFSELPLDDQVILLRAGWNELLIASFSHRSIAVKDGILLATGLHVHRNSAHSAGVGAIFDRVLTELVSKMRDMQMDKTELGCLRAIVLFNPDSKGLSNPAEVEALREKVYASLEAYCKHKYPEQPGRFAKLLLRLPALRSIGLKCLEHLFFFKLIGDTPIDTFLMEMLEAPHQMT

cancer cells = conditions: literature (Weggen 2001; Yamamoto 1999; Zhang 2000); cited from earlier work

CCCOc1cc2c(cc1C(=C1CC1)c1ccc(C(=O)O)cc1)C(C)(C)CCC2(C)C [BI-1003]
inhibition of 9-cis-RA-induced TREpal reporter activity (RXRα): inhibited
inhibition of 9-cis-RA-induced Ga14 reporter activation (RXRα-LBD): inhibited

CC1=C(CCc2nnn[nH]2)c2ccccc2/C1=C\c1ccc(C(C)C)cc1 [Compound K-8008, (Z)-5-(2-(1-(4-iso-Propylbenzylidene)-2-methyl-1H-inden-3-yl)ethyl)-1H-tetrazole]
inhibition of growth of cancer cells compared to Sulindac [1]: much more effective
PARP cleavage, combination with TNFα (A549 cells): could convert TNFα signaling from survival to death
apoptosis in tumor sections, TUNEL staining (HepG2 tumor xenografts; 20 mg/kg): induction of apoptosis
apparent toxic effects such as loss of body weight (HepG2 tumor xenografts): did not show any apparent toxic effects
growth of HepG2 tumor (HepG2 tumor xenografts; 20 mg/kg intraperitoneally daily): inhibited the growth of HepG2 tumor in a time dependent manner
reduction of tumor weight (HepG2 tumor xenografts): 61.23%
AKT activation (p-AKT) in tumors, Western blotting (HepG2 tumor xenografts; three tumors, 20 mg/kg): reduction of AKT activation
TNFα-induced AKT activation [2]: suppressed in a dose dependent manner

CC1=C(CCc2nnn[nH]2)c2cc(F)ccc2/C1=C\c1ccc(C(C)C)cc1 [Compound K-8012, (Z)-5-(2-(5-Fluoro-1-(4-isopropylbenzylidene)-2-methyl-1H-inden-3-yl)ethyl)-1H-tetrazole]
inhibition of growth of cancer cells compared to Sulindac [1]: much more effective
PARP cleavage, combination with TNFα (A549 cells): could convert TNFα signaling from survival to death
TNFα-induced AKT activation [2]: suppressed in a dose dependent manner

CC1=C(CC(=O)O)c2cc(F)ccc2/C1=C\c1ccc(C(C)C)cc1 [Compound K-80003, reference compound]
apparent toxic effects such as loss of body weight (HepG2 tumor xenografts): did not show any apparent toxic effects
reduction of tumor weight (HepG2 tumor xenografts): 54.84%
competition with [3H]9-cis-RA for binding to the LBP of RXRα (human RXRα-LBD): competed well

CC1=C(CC(=O)O)c2cc(F)ccc2/C1=C\c1ccc([S+](C)[O-])cc1 (stereo not shown) [Sulindac, reference compound]
PARP cleavage, combination with TNFα (A549 cells): significant induction of PARP cleavage
PARP cleavage, compound alone (A549 cells; 40 μM, 1% FBS): slightly induced PARP cleavage
concentration normally used to achieve anti-cancer effects (cancer cells): About 100 μM
